The values below come from US10689394B2, “Thieno[2,3-b]pyridine derivative, quinoline derivative, and use thereof” (The University of Tokyo, priority 2016, dated 2020).

The test system of the assay is SOD1 G93A transgenic mice (ALS model mice). In words: ALS model mice, continuous intracerebroventricular administration (rotarod onset, survival, motor neuron count). The format is in vivo, mouse. Here is the method: Wild-type mice (C57BL/6) and SOD1 G93A transgenic mice (G1L/+ line, backcrossed to C57BL/6) were purchased from The Jackson Laboratory, and were then mated and/or bred. All assays were carried out using only male mice.
Using Brain infusion kit 3 (Alzet) and an osmotic pump (Model 2006, Alzet), the compound was continuously administered into the cerebral ventricle of the SOD1 G93A transgenic mice (average onset: 28.1+1.3-week-old (Nishitoh et al., Genes Dev 22, 1451-1464, 2008)), from the time at which the mice were 22 weeks old (0.15 μL/h, 6 weeks/pump). As a preparation stage, 50% DMSO/PBS or each compound was filled into the pump, and was then immersed in 0.9% NaCl, so that priming was carried out 37° C. for 60 hours or more. Upon installation of the pump, the mice were anesthetized by intraperitoneal administration of 0.01 μL/g xylazine (1 mg/ml, Sigma) and 0.007 μL/g Pentobarbital Sodium Salt (5.4 mg/ml, Nacalai). The head portion of each mouse was dehaired, and the mouse was then fixed on a stereotaxic instrument equipped with a manipulator (NARISHIGE). Thereafter, the skin was cut, and the skull was exposed. The coordinate of Bregma was set at 0, and the position that was 1.1 mm to the right, 0.5 mm backward, and 2.5 mm downward was set at the coordinate of the administered cerebral ventricle. The pump was arranged under the dorsal skin, a cannula was then fixed using an adhesive, and the skin on the head portion of the mouse was closed using the adhesive. The pump was exchanged with a new one every 6 weeks, until it became difficult to perform surgery due to the onset of the pathologic conditions of ALS. Upon the exchange of the pump, the mouse was anesthetized, using 4% Isoflurane (Wako Pure Chemical Industries, Ltd.) for introduction, and 2% Isoflurane for maintenance. The dorsal surface of the pump-inserted site was dehaired, and the skin was excised to remove the pump. The removed pump was exchanged with a new pump that had previously been filled with 50% DMSO/PBS or each compound. After the exchange of the pump, the excised skin was closed with Wound clip (Alzet).
From the week at which the mice became 25 weeks old, motor function was measured three times a week according to a rotarod test. ROTA-ROD (Muromachi Kikai Co., Ltd.) was set at a reached rotation speed of 40 rpm and an acceleration time of 180 seconds. The period of time required until the target mouse was fallen during 300 seconds at longest was recorded. An interval of 180 seconds was provided between two trials. Two measurements were carried out in each trial, and better results were determined to be the results of the day. An average value in a week was calculated. […]
For orientation: The rotarod test checks motor coordination on a turning rod.

`C=CCN(C(=O)c1sc2nc(-c3cccnc3)ccc2c1N)c1ccccc1` [Example 1, N-allyl-3-amino-N-phenyl-6-(3-pyridinyl)thieno[2,3-b]pyridine-2-carboxamide]: the “Effects on model mice” value (SOD1 G93A transgenic mice) is “Significant effects”. Besides, the “number of motor neurons in spinal cord (Nissl staining)” value (SOD1 G93A transgenic mice, 31 weeks old, lumbar cord anterior horn, vs DMSO group, FIG. 11, 12) is “the number of motor neurons was significantly high”. Further, the “period of time required until the onset of the pathologic conditions (Onset), rotarod test” value (male SOD1 G93A transgenic mice, 3 mM continuous i.c.v. by osmotic pump from 22 weeks old, vs DMSO, FIG. 10A) is on record as “the onset was significantly delayed”. For the same compound, under “male SOD1 G93A transgenic mice, 3 mM continuous i.c.v. by osmotic pump from 22 weeks old, vs DMSO, FIG. 10B”, the “effect of extending the survival period (Survival)” value was “approximately 14%”.
